In ChEMBL document CHEMBL1159130, “1,2,4-Triacylpiperidine substance p antagonists: Separation of affinities for the NK-1 receptor and the L-type calcium channel” (Bioorg Med Chem Lett, 1995) one finds IC50 data, which are given here for 15 compounds.

What is called IC50 is the concentration that gives 50% inhibition.

Experiment [1] is described as follows: Inhibition of [3H]diltiazem binding to L-type calcium channels of rabbit skeletal muscle. The experiment is classed as tissue-based, Oryctolagus cuniculus, Muscle tissue.
In a further experiment the target is Substance-P receptor (Homo sapiens, UniProt P25103). Put plainly: Inhibition of [125I]-substance P binding to human neurokinin-1 (hNK-1) receptor in CHO cells. The experiment is classed as cell-based.
Chain of Substance-P receptor (P25103 whole entry): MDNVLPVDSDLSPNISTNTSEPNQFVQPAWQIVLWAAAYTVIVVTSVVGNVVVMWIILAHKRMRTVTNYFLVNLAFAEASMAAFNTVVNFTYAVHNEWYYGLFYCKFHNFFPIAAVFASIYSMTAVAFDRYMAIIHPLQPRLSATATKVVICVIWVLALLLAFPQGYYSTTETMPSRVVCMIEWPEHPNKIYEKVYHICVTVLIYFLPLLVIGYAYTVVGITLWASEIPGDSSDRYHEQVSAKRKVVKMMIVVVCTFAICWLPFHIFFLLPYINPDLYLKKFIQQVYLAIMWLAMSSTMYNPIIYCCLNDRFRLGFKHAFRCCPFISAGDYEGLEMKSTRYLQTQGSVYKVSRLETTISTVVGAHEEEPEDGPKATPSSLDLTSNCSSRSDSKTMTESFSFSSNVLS

As to `CCCCCN(CCCCC)C(=O)[C@H]1CCN(C(=O)N(c2ccccc2)c2ccccc2)[C@H](C(=O)NCCN(CC(N)=O)Cc2ccccc2OC)C1`, the figures for the IC50 (in experiment [1]; at Substance-P receptor) were 5600 nM and 1.8 nM, respectively.
With `CCCCCN(CCCCC)C(=O)[C@H]1CCN(C(=O)N(c2ccccc2)c2ccccc2)[C@H](C(=O)NCCCN(CC)CC)C1`, the results for the IC50 (in experiment [1]; at Substance-P receptor) were 820 nM and 5.5 nM, respectively.
For `CCCCCN(CCCCC)C(=O)[C@H]1CCN(C(=O)N(c2ccccc2)c2cccc(Cl)c2)[C@H](C(=O)O)C1` the same measures were > 5000 nM and 20 nM.
Take `CCCCCN(CCCCC)C(=O)[C@H]1CCN(C(=O)N(c2ccccc2)c2ccccc2)[C@H](C(=O)O)C1`: the IC50 in experiment [1] was > 5000 nM; at Substance-P receptor it was 33 nM.
Take `CCCCCN(CCCCC)C(=O)[C@@H]1CCN(C(=O)N(c2ccccc2)c2ccccc2)[C@H](C(=O)NCCN(C)Cc2ccccc2OC)C1`: the IC50 on Substance-P receptor worked out at 73 nM.
Take `COc1ccccc1CN(C)CCNC(=O)[C@@H]1C[C@@H](C(=O)N(Cc2ccccc2)Cc2ccccc2)CCN1C(=O)N(c1ccccc1)c1cccc(Cl)c1`: the IC50 in experiment [1] amounted to 110 nM; at Substance-P receptor it was 0.7 nM.
Consider `CCCCCN(CCCCC)C(=O)[C@H]1CCN(C(=O)N(c2ccccc2)c2cccc(Cl)c2)[C@H](C(=O)NCCNCC(N)=O)C1`, for which the half-maximal inhibitory concentration (IC50) came out at 3700 nM in experiment [1] and 3.5 nM at Substance-P receptor.
For the compound `CCCCCN(CCCCC)C(=O)N1CCN(C(=O)N(c2ccccc2)c2cccc(Cl)c2)[C@H](C(=O)NCCCN(CC)CC)C1`, the IC50 at Substance-P receptor amounted to 8 nM.
On to `CCCCCN(CCCCC)C(=O)[C@H]1CCN(C(=O)N(c2ccccc2)c2cccc(Cl)c2)[C@H](C(=O)NCCN(C)Cc2ccccc2OC)C1`, for which the IC50 in experiment [1] was found to be 210 nM; on Substance-P receptor, 1.4 nM.
For `CCCCCN(CCCCC)C(=O)[C@H]1CCN(C(=O)N(c2ccccc2)c2ccccc2)[C@H](C(=O)NCCNCC(N)=O)C1` the same measures were 2700 nM and 13 nM.
For `CCCCCN(CCCCC)C(=O)[C@H]1CCN(C(=O)N(c2ccccc2)c2cccc(Cl)c2)[C@H](C(=O)NCCN(CC(N)=O)Cc2ccccc2OC)C1` the same measures were 16200 nM and 3.8 nM.
As to `CCCCCN(CCCCC)C(=O)[C@H]1CCN(C(=O)N(c2ccccc2)c2cccc(Cl)c2)[C@H](C(=O)NCCN(CC(N)=O)C(=O)OCc2ccccc2)C1`, the IC50 in experiment [1] was > 5000 nM; at Substance-P receptor, 1.8 nM.
For the compound `CCCCCN(CCCCC)C(=O)[C@H]1CCN(C(=O)N(c2ccccc2)c2ccccc2)[C@H](C(=O)NCCN(C)Cc2ccccc2OC)C1`, the values for the IC50 (in experiment [1]; on Substance-P receptor) were 200 nM and 1.8 nM, respectively.
With `COC(=O)[C@H]1CCN(C(=O)N(c2ccccc2)c2ccccc2)[C@H](C(=O)NCCN(C)Cc2ccccc2OC)C1`, the results for the IC50 (in experiment [1]; at Substance-P receptor) were 470 nM and 250 nM, respectively.
Turning to `COc1ccccc1CN[C@H]1C2CCN(CC2)[C@H]1C(c1ccccc1)c1ccccc1` [CP-96345], in experiment [1], the IC50 is 240 nM.
